Data as given in patent US20260285850A1, “SUBSTITUTED OXAZOLIDINONES AND IMIDAZOLINONES AS HERBICIDES” (FMC CORPORATION, priority 2023, published 2026).

Legend:
Format in all cases: in vivo
[1] = tested on: barnyardgrass (Echinochloa crus-galli); test: Test A preemergence soil spray, visual injury rating 0-100; conditions: 10 days
Summary of the method: (§1)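 Seeds sown in loam-sand blend got a preemergence directed soil spray, or emerged plants (2-10 cm, one- to two-leaf) got a postemergence spray, of compound in non-phytotoxic solvent with surfactant. After 10 days in greenhouse, injury rated visually versus untreated controls on a 0 (no effect) to 100 (complete control) scale.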

[2] = tested on: blackgrass (Alopecurus myosuroides); test: as above; conditions: 10 days
Summary of the method: as §1

corn (Zea mays) [3] = test: as above; conditions: 10 days
Summary of the method: as §1

[4] = tested on: green foxtail (Setaria viridis); test: as above; conditions: 10 days
Summary of the method: as §1

kochia (Bassia scoparia) [5] = test: as above; conditions: 10 days
Summary of the method: as §1

[6] = tested on: oat, wild (wild oat, Avena fatua); test: as above; conditions: 10 days
Summary of the method: as §1

[7] = tested on: palmer (palmer amaranth, palmer pigweed, Amaranthus palmeri); test: as above; conditions: 10 days
Summary of the method: as §1

[8] = tested on: ragweed (common ragweed, Ambrosia artemisiifolia); test: as above; conditions: 10 days
Summary of the method: as §1

[9] = tested on: ryegrass, Italian (italian ryegrass, Lolium multiflorum); test: as above; conditions: 10 days
Summary of the method: as §1

soybean (Glycine max) [10] = test: as above; conditions: 10 days
Summary of the method: as §1

[11] = tested on: wheat (Triticum aestivum); test: as above; conditions: 10 days
Summary of the method: as §1

[12] = tested on: barnyardgrass (Echinochloa crus-galli); test: Test A postemergence application, visual injury rating 0-100
Summary of the method: as §1

[13] = tested on: blackgrass (Alopecurus myosuroides); test: as above
Summary of the method: as §1

corn (Zea mays) [14] = test: as above
Summary of the method: as §1

[15] = tested on: galium (catchweed bedstraw, Galium aparine); test: as above
Summary of the method: as §1

[16] = tested on: green foxtail (Setaria viridis); test: as above
Summary of the method: as §1

[17] = tested on: horseweed (Erigeron canadensis); test: as above
Summary of the method: as §1

kochia (Bassia scoparia) [18] = test: as above
Summary of the method: as §1

[19] = tested on: oat, wild (wild oat, Avena fatua); test: as above
Summary of the method: as §1

[20] = tested on: palmer (palmer amaranth, palmer pigweed, Amaranthus palmeri); test: as above
Summary of the method: as §1

[21] = tested on: ragweed (common ragweed, Ambrosia artemisiifolia); test: as above
Summary of the method: as §1

[22] = tested on: ryegrass, Italian (italian ryegrass, Lolium multiflorum); test: as above
Summary of the method: as §1

soybean (Glycine max) [23] = test: as above
Summary of the method: as §1

[24] = tested on: wheat (Triticum aestivum); test: as above
Summary of the method: as §1

[25] = tested on: barnyardgrass (Echinochloa crusgalli); test: Test B flooded paddy test, visual plant response rating 0-100; conditions: 250 g ai/ha, Flood, applied to paddy water, evaluated after 13 days
Summary of the method: (§2)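 2-leaf plants; flood 3 cm over soil; compound dosed into paddy water; depth kept constant; greenhouse 13 d; visual scoring vs controls. Dash = no result.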

[26] = tested on: ducksalad (Heteranthera limosa); test: as above; conditions: 250 g ai/ha, Flood, applied to paddy water, evaluated after 13 days
Summary of the method: as §2

rice (Oryza sativa) = test: as above; conditions: 250 g ai/ha, Flood, applied to paddy water, evaluated after 13 days
Summary of the method: as §2

[27] = tested on: sedge, umbrella (small-flower umbrella sedge, Cyperus difformis); test: as above; conditions: 250 g ai/ha, Flood, applied to paddy water, evaluated after 13 days
Summary of the method: as §2

[28] = 62 g ai/ha, 0 = no effect, 100 = complete control
[29] = 62 g ai/ha, postemergence, 10 days, 0 = no effect, 100 = complete control
[30] = Postemergence, 16 g ai/ha, greenhouse 10 days, 0 no effect, 100 complete control

## CC1(C(=O)NC2C=CC(C(=O)O)C2)CN(c2cc(F)cc(F)c2)C(=O)O1 (stereo not shown) [Compound 131]
[1]; 16 g ai/ha, 0 to 100 scale
  Barnyardgrass plant response rating: 0
[1]; [28]
  Barnyardgrass plant response rating (0-100): 80
[2]; 16 g ai/ha, 0 to 100 scale
  Blackgrass plant response rating: 30
[2]; [28]
  Blackgrass plant response rating (0-100): 90
Corn (Zea mays) [3]; 16 g ai/ha, 0 to 100 scale
  Corn plant response rating: 10
Corn (Zea mays) [3]; [28]
  Corn plant response rating (0-100): 80
[4]; 16 g ai/ha, 0 to 100 scale
  Foxtail, Green plant response rating: 0
[4]; [28]
  Foxtail, Green plant response rating (0-100): 100
Kochia (Bassia scoparia) [5]; 16 g ai/ha, 0 to 100 scale
  Kochia plant response rating: 0
Kochia (Bassia scoparia) [5]; [28]
  Kochia plant response rating (0-100): 90
[6]; 16 g ai/ha, 0 to 100 scale
  Oat, Wild plant response rating: 0
[6]; [28]
  Oat, Wild plant response rating (0-100): 60
[7]; 16 g ai/ha, 0 to 100 scale
  Pigweed, Palmer plant response rating: 0
[7]; [28]
  Pigweed, Palmer plant response rating (0-100): 80
[8]; 16 g ai/ha, 0 to 100 scale
  Ragweed plant response rating: 0
[8]; [28]
  Ragweed plant response rating (0-100): 10
[9]; 16 g ai/ha, 0 to 100 scale
  Ryegrass, Italian plant response rating: 0
[9]; [28]
  Ryegrass, Italian plant response rating (0-100): 90
Soybean (Glycine max) [10]; 16 g ai/ha, 0 to 100 scale
  Soybean plant response rating: 0
Soybean (Glycine max) [10]; [28]
  Soybean plant response rating (0-100): 80
[11]; 16 g ai/ha, 0 to 100 scale
  Wheat plant response rating: 30
[11]; [28]
  Wheat plant response rating (0-100): 90
[12]; [29]
  Barnyardgrass plant response rating (0-100): 100
[12]; [30]
  Barnyardgrass plant response rating (0 to 100 scale): 90
[13]; [29]
  Blackgrass plant response rating (0-100): 90
[13]; [30]
  Blackgrass plant response rating (0 to 100 scale): 90
Corn (Zea mays) [14]; [29]
  Corn plant response rating (0-100): 100
Corn (Zea mays) [14]; [30]
  Corn plant response rating (0 to 100 scale): 50
[15]; [29]
  Galium plant response rating (0-100): 90
[15]; [30]
  Galium plant response rating (0 to 100 scale): 70
[16]; [29]
  Foxtail, Green plant response rating (0-100): 90
[16]; [30]
  Foxtail, Green plant response rating (0 to 100 scale): 30
[17]; [29]
  Horseweed plant response rating (0-100): 80
[17]; [30]
  Horseweed plant response rating (0 to 100 scale): 40
Kochia (Bassia scoparia) [18]; [29]
  Kochia plant response rating (0-100): 50
Kochia (Bassia scoparia) [18]; [30]
  Kochia plant response rating (0 to 100 scale): 20
[19]; [29]
  Oat, Wild plant response rating (0-100): 90
[19]; [30]
  Oat, Wild plant response rating (0 to 100 scale): 90
[20]; [29]
  Pigweed, Palmer plant response rating (0-100): 80
[20]; [30]
  Pigweed, Palmer plant response rating (0 to 100 scale): 20
[21]; [29]
  Ragweed plant response rating (0-100): 70
[21]; [30]
  Ragweed plant response rating (0 to 100 scale): 0
[22]; [29]
  Ryegrass, Italian plant response rating (0-100): 90
[22]; [30]
  Ryegrass, Italian plant response rating (0 to 100 scale): 10
Soybean (Glycine max) [23]; [29]
  Soybean plant response rating (0-100): 80
Soybean (Glycine max) [23]; [30]
  Soybean plant response rating (0 to 100 scale): 80
[24]; [29]
  Wheat plant response rating (0-100): 90
[24]; [30]
  Wheat plant response rating (0 to 100 scale): 90
[25]
  Plant response rating, Barnyardgrass (0 to 100 scale, 0 is no effect and 100 is complete control): 95
[26]
  Plant response rating, Ducksalad (0 to 100 scale, 0 is no effect and 100 is complete control): 80
Rice (Oryza sativa)
  Plant response rating, Rice (0 to 100 scale, 0 is no effect and 100 is complete control): 70
[27]
  Plant response rating, Sedge, Umbrella (0 to 100 scale, 0 is no effect and 100 is complete control): 95
